Experiments:
[1] = test system: hyperuricemic gout patients; test: FOCUS long-term open-label study: safety
[2] = test system: human subjects with a history of nephrolithiasis; test: Adverse events and discontinuations in the double-blind and open-label febuxostat study; assay type: in vivo
Experimental: (1) febuxostat 40 mg per day, (2) febuxostat 80 mg per day, (3) febuxostat 120 mg per day, or (4) placebo. Subjects completing the double-blind study entered an open-label, long-term study and began treatment with 80 mg febuxostat per day. Febuxostat doses could be titrated over the initial 6 months to 40 mg or 120 mg febuxostat per day based on the subjects' serum urate levels and the occurrence of adverse events.

[3] = test system: remnant kidney (RK) rats; test: Proteinuria in remnant kidney rats; assay type: in vivo, Male Wistar rats
Experimental: Male Wistar rats (295-340 g) were used to produce rats with remnant kidney (RK) as follows. […] Rats were then assigned to one of four treatment groups: Group 1, RK control rats (n=7); Group 2, RK+febuxostat (Fx) rats (n=8); Group 3, RK+oxonic acid (OA) rats (n=6); and Group 4, RK+OA+Fx (n=10). Oxonic acid (OA) (Sigma-Aldrich, St Louis Mo., USA), administered at 750 mg/kg body weight daily by oral gavage, was given starting the day after the ⅚ nephrectomy. […] Body weight (beginning just before surgery) and food and water intakes were measured daily. Systolic blood pressure, measured in conscious rats by a tail cuff sphygmomanometer, and plasma uric acid (UA) levels were measured at just before surgery (namely, at baseline) and at the end of the four weeks. Proteinuria was measured at baseline and at the end of two and four weeks. […] Food and water intake were determined daily. Systolic blood pressure (SBP) was measured by a tail-cuff sphygmomanometer using an automated system (XBP-100; Kent Scientific Co, Torrington, Conn., USA) in conscious animals. […] Plasma uric acid was quantified using a commercial kit (Diagnostic Chemicals Ltd, Charlottetown, PEI, Canada). […]

[4] = adverse events, N = 116, PY = 385.6
[5] = serious adverse events, N = 116, PY = 385.6
[6] = number of subjects, N = 18, open-label study

## Cc1nc(-c2ccc(OCC(C)C)c(C#N)c2)sc1C(=O)O [febuxostat, 2-[3-cyano-4-(2-methylpropoxy)phenyl]-4-methylthiazole-5-carboxylic acid]
[1]; 21/116 subjects
  Subjects reporting serious adverse events (SAEs): 18%
[1]; [4]
  Athralgia, rate: 13.0 per 100 PY
  Diarrhea, rate: 7.8 per 100 PY
  Headaches, rate: 20.5 per 100 PY
  Influenza viral infections, rate: 7.3 per 100 PY
  Limb injuries, rate: 5.4 per 100 PY
  Liver function analyses, rate: 6.3 per 100 PY
  Lower respiratory tract infections, rate: 8.8 per 100 PY
  Musculoskeletal pain, rate: 23.6 per 100 PY
  Paresthesias and dysesthesias, rate: 6.2 per 100 PY
  Upper respiratory tract infections, rate: 37.8 per 100 PY
[1]; in vivo
  Deaths during the study: No subjects died
[1]; [5]
  Cardiac disorders, rate: 1.6 per 100 PY
  Gastrointestinal disorders, rate: 0.8 per 100 PY
  General disorders and administration site conditions, rate: 0.3 per 100 PY
  Hepatobiliary disorders, rate: 0.5 per 100 PY
  Infections and infestations, rate: 1.3 per 100 PY
  Injury, poisoning and procedural complications, rate: 1.0 per 100 PY
  Musculoskeletal and connective tissue disorders, rate: 1.6 per 100 PY
  Neoplasms - bening, malignant and unspecified, rate: 1.0 per 100 PY
  Nervous system disorders, rate: 0.5 per 100 PY
  Psychiatric disorders, rate: 0.3 per 100 PY
  Renal and urinary disorders, rate: 0.3 per 100 PY
[1]; subjects of 116 (Ninety-one percent)
  Subjects reporting at least one AE during the study: 106/116
[1]; throughout the range of renal function encountered
  Reported rates of adverse events across renal function (in words): no quantitative difference
[2]; [6]
  Diarrhea (excluding infectious): 7
  Edema NEC: 3
  Gastrointestinal and Abdominal Pains (excluding oral and throat): 3
  Joint Related Signs and Symptoms: 6
  Lower Respiratory Tract and Lung Infections: 5
  Musculoskeletal and Connective Tissue Signs and Symptoms NEC: 5
  Non-Site Specific Injuries: 4
  Rashes, Eruptions and Exanthems NEC: 3
  Total Subjects with ≧1 AE: 17
  Upper Respiratory Infections: 12
  Urinary Tract Infections: 3
[2]; one subject, open-label, Baseline: 1.6 mg/dL
  Serum creatinine at Withdrawal (adverse event Increased Creatinine): 2.1 mg/dL
[2]; one subject, Follow-up Day 163, two weeks off study medication
  Serum creatinine at Follow-up (adverse event Increased Creatinine): 1.9 mg/dL
[3]; RK rats with and without hyperuricemia
  Rise of urinary protein excretion (in words): prevented the rise of urinary protein excretion
[3]; RK+Fx and RK+OA+Fx rats, end of Week 4
  Urinary protein excretion, lower than the values in the respective control groups: 75-80%

Source: patent publication US20130143886A1, “METHODS FOR PRESERVING AND/OR INCREASING RENAL FUNCTION USING XANTHINE OXIDOREDUCTASE INHIBITORS” (priority 2006, published 2013)
